# According to patent US10517889B2, “Modulators of SMAD7 expression” (Ionis Pharmaceuticals, Inc., priority 2017, dated 2019):
# Strand notation (5' to 3'): a small letter for the sugar, then the base; units joined by * are phosphorothioate-linked, units joined directly phosphodiester-linked; [ ] holds rarer units or linkages, { } end groups; capitals alone tell only the bases. k = constrained ethyl (cEt); [5mC] = 5-methylcytosine; d = 2'-deoxy (DNA)
# System: human SMAD7 mRNA
# Assay: Antisense inhibition of human SMAD7 mRNA expression in Hep3B cells by 3-10-3 cEt gapmers, 10,000 nM, electroporation (Example 2)
# Type: cell-based
# Settings: approximately 24 hours
# In short: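 SMAD7 mRNA was measured by real-time PCR (RTS5062) with RiboGreen total-RNA normalization, about 24 h after 10,000 nM gapmer was delivered by electroporation into Hep3B cells at 20,000 per well. Gapmers were 16-mer 3-10-3 cEt, fully phosphorothioate; values are % inhibition versus untreated controls.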
# [1] = Hep3B cells, electroporation with 10,000 nM antisense oligonucleotide, SMAD7 mRNA by RT-PCR (RTS5062), relative to untreated control cells
# [2] = SMAD7 mRNA, Hep3B cells, 10,000 nM antisense oligonucleotide, electroporation, primer probe set RTS5062, relative to untreated control cells
# [3] = Hep3B cells, electroporation, 10,000 nM antisense oligonucleotide, RTS5062, relative to untreated control cells
# [4] = Hep3B cells, electroporation with 10,000 nM antisense oligonucleotide, primer probe set RTS5062, relative to untreated control cells
# [5] = Hep3B cells, 10,000 nM antisense oligonucleotide, electroporation, RT-PCR primer probe set RTS5062, relative to untreated control cells
# [6] = SMAD7 mRNA, Hep3B cells, electroporation with 10,000 nM antisense oligonucleotide, primer probe set RTS5062, relative to untreated control cells
substance,measurement,setting,value
830049 (kG*kT*kT*dT*d[5mC]*d[5mC]*dG*dA*dT*dT*dG*dG*d[5mC]*kA*kG*kG; antisense) [compound 830049],% Inhibition,[1],43%
829731 (antisense kA*kG*k[5mC]*dA*dG*dG*d[5mC]*dG*d[5mC]*dA*dG*dG*d[5mC]*kG*kA*k[5mC]) [compound 829731],% Inhibition,[2],50%
799799 (kA*kA*kA*dA*d[5mC]*dA*dT*d[5mC]*d[5mC]*d[5mC]*dA*d[5mC]*dT*kT*k[5mC]*kT; antisense) [compound 799799],% inhibition of SMAD7 mRNA expression,[3],28%
798847 (kT*kT*kG*d[5mC]*dT*d[5mC]*d[5mC]*dG*d[5mC]*dA*d[5mC]*d[5mC]*dT*kT*k[5mC]*kT; antisense) [compound 798847],% Inhibition,[1],24%
798924 (kA*kG*kT*dT*dT*dG*dA*dA*dG*dT*dG*dT*dG*kG*k[5mC]*k[5mC]; antisense) [compound 798924],% Inhibition,[4],43%
800776 (antisense kG*kA*kG*dG*d[5mC]*dA*d[5mC]*dG*d[5mC]*dG*dG*dT*dG*k[5mC]*kG*k[5mC]) [compound 800776],% Inhibition,[2],36%
799139 (antisense k[5mC]*kG*kG*dA*d[5mC]*d[5mC]*dA*dA*dA*dT*d[5mC]*d[5mC]*dT*kT*k[5mC]*kT) [compound 799139],% Inhibition,[4],56%
799201 (antisense kT*kT*kT*dT*d[5mC]*dA*dG*dG*dA*dG*dT*d[5mC]*d[5mC]*kT*kT*kT) [compound 799201],% inhibition of SMAD7 mRNA expression,[4],38%
830159 (antisense k[5mC]*k[5mC]*kA*d[5mC]*dT*dA*dA*dA*dT*dT*dG*dA*dG*kA*kA*k[5mC]) [compound 830159],% Inhibition,[1],42%
799864 (k[5mC]*kT*k[5mC]*dA*dA*dG*d[5mC]*d[5mC]*d[5mC]*dA*d[5mC]*d[5mC]*d[5mC]*k[5mC]*kG*kG; antisense) [compound 799864],% Inhibition,[1],42%
772613 (kA*kT*kT*dG*dA*dG*d[5mC]*dT*dG*dT*d[5mC]*d[5mC]*dG*kA*kG*kG; antisense) [compound 772613],% Inhibition,[5],7%
799984 (kA*k[5mC]*kA*dT*d[5mC]*dA*d[5mC]*d[5mC]*dA*d[5mC]*dG*d[5mC]*d[5mC]*kT*k[5mC]*kG; antisense) [compound 799984],% Inhibition,[1],61%
800103 (antisense kG*kG*kA*d[5mC]*dG*dA*dG*dA*d[5mC]*dA*dG*dA*dA*kA*kG*kA) [compound 800103],% Inhibition,[1],4%
830153 (antisense kG*k[5mC]*k[5mC]*dT*d[5mC]*dA*dG*d[5mC]*dA*dG*dT*dT*dA*kA*kT*kA) [compound 830153],% Inhibition,[1],21%
799681 (antisense kA*k[5mC]*kT*d[5mC]*dA*dT*d[5mC]*d[5mC]*dT*dG*dT*dT*dG*kG*k[5mC]*kA) [compound 799681],% inhibition of SMAD7 mRNA expression,[3],53%
800077 (antisense k[5mC]*k[5mC]*kT*dT*dA*dA*d[5mC]*dA*dA*dA*dG*d[5mC]*dT*kT*k[5mC]*k[5mC]) [compound 800077],% Inhibition,[5],36%
799946 (antisense kT*k[5mC]*kA*dG*dA*dA*d[5mC]*dA*d[5mC]*dA*d[5mC]*dT*dT*kT*kG*kG) [compound 799946],% Inhibition,[1],2%
799886 (antisense kA*k[5mC]*k[5mC]*dA*dA*dG*d[5mC]*dT*dA*d[5mC]*dT*dT*dT*kT*kG*k[5mC]) [compound 799886],% Inhibition,[1],25%
830085 (k[5mC]*kA*kG*dG*dA*dT*dA*d[5mC]*dA*d[5mC]*dT*dT*dA*kA*kT*k[5mC]; antisense) [compound 830085],% Inhibition,[1],27%
829799 (kT*k[5mC]*kG*dG*d[5mC]*dT*dA*dA*dG*dG*dT*dG*dA*kT*kG*kG; antisense) [compound 829799],% Inhibition,[6],51%
799343 (kA*k[5mC]*kT*dA*dA*dT*d[5mC]*dT*dA*d[5mC]*dA*dG*dA*k[5mC]*kT*kT; antisense) [compound 799343],% inhibition of SMAD7 mRNA expression,[4],53%
799062 (antisense k[5mC]*kT*kG*dG*dT*dT*d[5mC]*dG*dG*d[5mC]*d[5mC]*dA*d[5mC]*kT*kA*kG) [compound 799062],% Inhibition,[4],45%
799344 (k[5mC]*k[5mC]*k[5mC]*dA*d[5mC]*dT*dA*dA*dT*d[5mC]*dT*dA*d[5mC]*kA*kG*kA; antisense) [compound 799344],% inhibition of SMAD7 mRNA expression,[4],34%
799074 (antisense k[5mC]*kA*kA*dA*dA*dA*dA*dG*dA*dA*dA*dG*dA*k[5mC]*kG*k[5mC]) [compound 799074],% Inhibition,[4],9%
799415 (antisense kG*k[5mC]*k[5mC]*dA*d[5mC]*dA*dG*d[5mC]*dA*dG*d[5mC]*dT*dG*kG*k[5mC]*kA) [compound 799415],% Inhibition,[1],0%
799148 (antisense kT*kG*kG*dT*dA*d[5mC]*d[5mC]*dT*dT*dG*dG*dG*dT*kT*kA*kT) [compound 799148],% inhibition of SMAD7 mRNA expression,[4],29%
829853 (antisense kA*k[5mC]*kT*d[5mC]*dT*dT*dG*dT*dT*dG*dT*d[5mC]*d[5mC]*kG*kA*kA) [compound 829853],% Inhibition,[6],42%
790604 (kT*kA*k[5mC]*dG*dA*dG*dT*dG*dT*dA*dT*dG*dA*kG*kT*kT; antisense) [compound 790604],% Inhibition,[2],30%
799977 (kG*kG*kA*d[5mC]*dA*dT*d[5mC]*dT*d[5mC]*dA*dA*dA*dG*kG*kT*kT; antisense) [compound 799977],% Inhibition,[5],36%
800060 (antisense k[5mC]*k[5mC]*k[5mC]*d[5mC]*dA*dA*dA*dA*dG*d[5mC]*dT*d[5mC]*d[5mC]*kA*k[5mC]*kA) [compound 800060],% Inhibition,[1],5%
830065 (kA*kA*kT*dG*dG*dT*dG*d[5mC]*dT*d[5mC]*dT*dG*d[5mC]*k[5mC]*k[5mC]*kT; antisense) [compound 830065],% Inhibition,[1],43%
829971 (kG*k[5mC]*k[5mC]*dA*d[5mC]*dA*d[5mC]*dA*d[5mC]*d[5mC]*dT*d[5mC]*dA*kA*k[5mC]*kG; antisense) [compound 829971],% Inhibition,[6],20%
799253 (antisense k[5mC]*kT*k[5mC]*d[5mC]*dA*dA*dA*dG*dG*dT*dG*d[5mC]*dG*k[5mC]*kG*kG) [compound 799253],% Inhibition,[1],0%
830058 (kG*kG*kT*dA*dG*dG*d[5mC]*dA*d[5mC]*dA*dT*d[5mC]*dA*kT*k[5mC]*kA; antisense) [compound 830058],% Inhibition,[1],22%
799269 (antisense kA*kG*kA*d[5mC]*dT*d[5mC]*d[5mC]*dA*dG*dT*dT*d[5mC]*dG*kG*k[5mC]*k[5mC]) [compound 799269],% inhibition of SMAD7 mRNA expression,"Hep3B cells, electroporation, 10,000 nM, 3-10-3 cEt gapmers targeting SEQ ID NO: 3 and 4",20%
800795 (antisense kT*kA*kA*d[5mC]*dT*dG*d[5mC]*dT*dG*d[5mC]*dG*dG*dT*kT*kG*kT) [compound 800795],% Inhibition,[2],12%
799221 (kT*kT*kT*dA*dA*dT*dT*dT*dG*dG*d[5mC]*dA*dT*kT*kT*kG; antisense) [compound 799221],% Inhibition,[4],0%
799454 (antisense kT*kT*kA*dA*dA*dG*dA*d[5mC]*dA*dG*dA*dG*dG*kA*kG*k[5mC]) [compound 799454],% Inhibition,[1],55%
799015 (kG*kG*kG*dA*d[5mC]*dA*dT*d[5mC]*d[5mC]*dA*dT*dA*dA*kG*kA*kG; antisense) [compound 799015],% Inhibition,[4],25%
801132 (antisense kG*kG*kT*dG*dA*d[5mC]*dT*d[5mC]*dA*dT*d[5mC]*dA*dG*kG*k[5mC]*kA) [compound 801132],% Inhibition,[2],55%
830024 (antisense kT*kG*kT*dA*dA*dA*dT*d[5mC]*dG*dA*dA*dA*dG*k[5mC]*kA*kA) [compound 830024],% Inhibition,[1],40%
799092 (antisense kG*kG*k[5mC]*dA*d[5mC]*dT*dG*dG*dG*dT*dG*dA*dG*k[5mC]*kA*kA) [compound 799092],% inhibition of SMAD7 mRNA expression,[4],30%
800064 (antisense kA*kT*kG*dG*dA*dG*dG*dT*dG*d[5mC]*d[5mC]*d[5mC]*dG*kT*k[5mC]*kA) [compound 800064],% Inhibition,[1],0%
829727 (antisense kG*k[5mC]*kT*d[5mC]*d[5mC]*dG*dT*dG*dG*d[5mC]*dA*dT*dG*k[5mC]*kG*k[5mC]) [compound 829727],% Inhibition,[2],35%
